Inhibition data for 10 compounds are collected here from patent US12630534B2 (TAKEDA PHARMACEUTICAL COMPANY LIMITED, priority 2020, dated 2026).

In general, inhibition refers to the drop in the measured response relative to a control, in per cent.

The test concerns the target T1, human GPR139 (Homo sapiens, UniProt Q6DWJ6).
T1 construct: expressed in transfected cells; host or cells: CHO-TREx (Life Technologies) cells, expression induced with doxycycline
T1 sequence (Q6DWJ6 1-353): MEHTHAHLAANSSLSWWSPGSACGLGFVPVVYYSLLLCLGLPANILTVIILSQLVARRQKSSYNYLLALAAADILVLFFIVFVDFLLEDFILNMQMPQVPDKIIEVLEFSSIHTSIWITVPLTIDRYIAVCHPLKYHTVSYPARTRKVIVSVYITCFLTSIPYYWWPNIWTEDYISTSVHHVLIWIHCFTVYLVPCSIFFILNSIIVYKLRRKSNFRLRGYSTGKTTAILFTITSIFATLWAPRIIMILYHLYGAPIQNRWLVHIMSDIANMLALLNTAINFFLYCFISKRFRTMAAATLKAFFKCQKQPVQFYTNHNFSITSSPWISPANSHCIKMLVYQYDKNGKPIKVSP
The experiment in a line: Inhibition rate of the amount of IP1 in GPR139-expressed CHO cells (inverse agonist assay, Test Example 2). The format is cell-based. The conditions noted are these: CHO, relative value, inhibition rate of Example Compound 2 in Test Example 1 defined as 100%. How it is done:
The measurement of IP1 was made using an IP-ONE HTFR assay kit (cis-bio) and CHO-TREx (Life Technologies) cells stably transfected with GPR139. The CHO-TREx cells expressed human GPR139 with a tetracycline-inducing element. The cells were cultured in a medium containing F12K and 10% tetracycline-free FBS, and the expression of human GPR139 was induced over the course of 17 hours under conditions of 37° C. and 5% CO2 in the presence of 2 μg/mL of doxycycline (Clontech, 631311) in the growth medium on the day before assay. On the day of the test, after the cells were washed with 10 mL of PBS, the cells were detached with TrypLE Express (Life Technologies) and centrifuged at 1,000 rpm to form pellets, and a cell suspension was then prepared using a stimulation buffer (cis-bio, included in the IP-ONE HTRF assay kit).
The compound was diluted with the stimulation buffer, and 4 μL was added to a 384-well white assay plate (Greiner). The cell suspension was added so that there were 2000 cells per well, and the assay plate was left to stand for 40 minutes at 37° C. Equal amounts of IP1-d2 and Ab-Crp solutions (both available from cis-bio, included in the IP-ONE HTRF assay kit) prepared with a lysis buffer (cis-bio, included in the IP-ONE HTRF assay kit) were mixed, and 4 μL was added to the assay plate and left to stand for one hour at room temperature. After the fluorescence strengths of two wavelengths were measured by the HTRF settings of Envision (PerkinElmer), the value of Ratio={(Signal 665 nm)/(Signal 615 nm)}×10000 was calculated.
Measurement of the Inhibition Rate of the Amount of IP1 in GPR139-Expressed CHO Cells (Inverse Agonist Assay)
The activities of the compounds of Examples 1 and 3 to 167 were expressed as relative values in Table 2 by measuring the inhibition rate of the amount of IP1 with the same method as in Test Example 1 and defining the inhibition rate of the amount of IP1 of Example Compound 2 in Test Example 1 as […].
For the compound `CCn1cc(Cn2cc(C)n(-c3cc(OCC4CC(F)(F)C4)cc(C(F)(F)F)c3)c2=O)cn1` [Example 7, 3-{3-[(3,3-difluorocyclobutyl)methoxy]-5-(trifluoromethyl)phenyl}-1-[(1-ethyl-1H-pyrazol-4-yl)methyl]-4-methyl-1,3-dihydro-2H-imidazol-2-one], the inhibition at 30 µM was 102%.
For `CCn1cc(Cn2c(C)cn(-c3nc(N(C)C4CCOCC4)cc(C(F)(F)F)c3Cl)c2=O)cn1` [Example 83, 1-{3-chloro-6-[methyl(oxan-4-yl)amino]-4-(trifluoromethyl)pyridin-2-yl}-3-[(1-ethyl-1H-pyrazol-4-yl)methyl]-4-methyl-1,3-dihydro-2H-imidazol-2-one] the value was 99%; for `CCn1cc(Cn2c(C)c(C)n(-c3cc(N4CCO[C@H](C)C4)cc(C(F)(F)F)c3)c2=O)cn1` [Example 16, 1-[(1-ethyl-1H-pyrazol-4-yl)methyl]-4,5-dimethyl-3-(3-[(2R)-2-methylmorpholin-4-yl]-5-(trifluoromethyl)phenyl}-1,3-dihydro-2H-imidazol-2-one], 100%; for `CCn1cc(Cn2ccn(-c3cc(N4CCO[C@H](C)C4)cc(C4CC4(F)F)c3F)c2=O)cn1` (stereo partly drawn) [Example 78, 1-{3-(2,2-difluorocyclopropyl)-2-fluoro-5-[(2R)-2-methylmorpholin-4-yl]phenyl}-3-[(1-ethyl-1H-pyrazol-4-yl)methyl]-1,3-dihydro-2H-imidazol-2-one], 99%.
Turning to `CCn1cc(Cn2cc(C)n(-c3cc(OCC4CC(F)(F)C4)cc(C4CC4)c3)c2=O)cn1` [Example 67, 3-{3-cyclopropyl-5-[(3,3-difluorocyclobutyl)methoxy]phenyl}-1-[(1-ethyl-1H-pyrazol-4-yl)methyl]-4-methyl-1,3-dihydro-2H-imidazol-2-one], the inhibition at 30 µM worked out at 98%.
As to `CCn1cc(Cn2cc(C)n(-c3cc(C(F)(F)F)cc(N4CCOC(F)(F)C4)n3)c2=O)cn1` [Example 111, 3-[6-(2,2-difluoromorpholin-4-yl)-4-(trifluoromethyl)pyridin-2-yl]-1-[(1-ethyl-1H-pyrazol-4-yl)methyl]-4-methyl-1,3-dihydro-2H-imidazol-2-one], the inhibition at 30 µM worked out at 105%.
For `Cc1cn(Cc2cnn(C(C)C)c2)c(=O)n1-c1cc(C(F)(F)F)cc(N(C)C2CCOCC2)n1` [Example 128, 4-methyl-3-{6-[methyl(oxan-4-yl)amino]-4-(trifluoromethyl)pyridin-2-yl}-1-{[1-(propan-2-yl)-1H-pyrazol-4-yl]methyl}-1,3-dihydro-2H-imidazol-2-one] the value was 101%; for `Cc1nn(-c2cc(N3CCO[C@@H](C)C3)cc(C(F)(F)F)c2F)c(=O)n1Cc1cnn(C(C)C)c1` [Example 90, 2-{2-fluoro-5-[(2S)-2-methylmorpholin-4-yl]-3-(trifluoromethyl)phenyl}-5-methyl-4-{[1-(propan-2-yl)-1H-pyrazol-4-yl]methyl}-2,4-dihydro-3H-1,2,4-triazol-3-one], 99%; for `CCn1cc(Cn2ccn(-c3cc(N4CCO[C@H](C)C4)cc(C(F)(F)F)c3Cl)c2=O)cn1` [Example 15, 1-{2-chloro-5-[(2R)-2-methylmorpholin-4-yl]-3-(trifluoromethyl)phenyl}-3-[(1-ethyl-1H-pyrazol-4-yl)methyl]-1,3-dihydro-2H-imidazol-2-one], 101%.
The result for `CCc1nn(-c2cc(N3CCOC(C)(C)C3)cc(C(F)(F)F)c2F)c(=O)n1Cc1cnn(CC)c1` [Example 136, 2-[5-(2,2-dimethylmorpholin-4-yl)-2-fluoro-3-(trifluoromethyl)phenyl]-5-ethyl-4-[(1-ethyl-1H-pyrazol-4-yl)methyl]-2,4-dihydro-3H-1,2,4-triazol-3-one] reads 100%.
